# Results taken from patent US4997847A, “Biologically active compounds” (Smith Kline & French Laboratories Limited, priority 1987, dated 1991).
# Biological target: T1, TXA2 receptors (Homo sapiens, UniProt P21731)
# T1 construct: to Washed Human Platelets; endogenous in cells; host or cells: washed human platelets
# T1 sequence (P21731 1-343): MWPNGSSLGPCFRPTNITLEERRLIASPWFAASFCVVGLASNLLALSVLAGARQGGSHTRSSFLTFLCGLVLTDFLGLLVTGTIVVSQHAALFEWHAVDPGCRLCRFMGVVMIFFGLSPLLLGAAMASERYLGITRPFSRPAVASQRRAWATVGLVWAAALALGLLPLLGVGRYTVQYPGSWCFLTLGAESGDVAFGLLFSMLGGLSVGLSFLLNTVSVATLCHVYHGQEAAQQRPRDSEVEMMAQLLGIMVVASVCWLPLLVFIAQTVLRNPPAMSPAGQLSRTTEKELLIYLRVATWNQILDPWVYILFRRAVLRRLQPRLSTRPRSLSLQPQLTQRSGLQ
# Experiment: Human platelet binding assay: inhibition of [^125 I]PTA-OH binding to washed human platelets
# Details: [^125 I]PTA-OH as receptor ligand, 50% inhibition of specific binding
# Description: As indicated above, compounds of the formula (I) have biological activity that is indicative of an ability to antagonise TXA2 receptors.
# The platelet binding assay used was essentially the method described by Mais et al, J. Pharm. Exp. Ther., 1985, 235(3), 729-734 where [^125 I]PTA-OH was used as the receptor ligand.
# The IC50 values represent the concentration which produces a 50% inhibition of specific [^125 I]PTA-OH binding.
# The activities of the compounds of the present invention in the assay are described in Example 33.
# Inhibition of [^125 I]PTA-OH Binding
# to Washed Human Platelets
row,SMILES,IC50 [nM]
1,"O=C(O)CCCCCCCNS(=O)(=O)c1ccc(F)cc1 [Example 25, 8(4-Fluorobenzenesulphonamido)octanoic Acid]",220
2,"O=C(O)CCCCCCCCCCNS(=O)(=O)c1cccc(Cl)c1 [Example 20, 11-(3-Chlorobenzenesulphonamido)undecanoic Acid]",1900
3,"O=C(O)CCCCCCCNS(=O)(=O)c1cc(Cl)sc1Cl [Example 32, 8-(2,5-Dichloro-3-thienylsulphonamido)octanoic Acid]",650
4,"O=C(O)CCCCCCCCNS(=O)(=O)c1ccccc1 [Example 7, 9-(Benzenesulphonamido)nonanoic Acid]",280
5,"O=C(O)CCCCCCCNS(=O)(=O)c1ccc(Cl)cc1 [Example 3, 8-(4-Chlorobenzenesulphonamido)octanoic Acid]",30
6,"O=C(O)CCCCCCCCNS(=O)(=O)c1cccc(Cl)c1 [Example 23, 9-(3-Chlorobenzenesulphonamido)nonanoic Acid]",250
7,"O=C(O)CCCCCCCCNS(=O)(=O)c1ccc(Br)cc1 [Example 26, 9-(4-Bromobenzenesulphonamido)nonanoic Acid]",40
8,"CC(C)(CCCCCCNS(=O)(=O)c1ccc(Cl)cc1)C(=O)O [Example 5, 8-(4-Chlorobenzenesulphonamido)-2,2-dimethyloctanoic Acid]",150
9,"O=C(O)CCCCCCCNS(=O)(=O)c1ccc(Cl)c(Cl)c1 [Example 18, 8-(3,4-Dichlorobenzenesulphonamido)octanoic Acid]",70
10,"O=C(O)CCCCCCNS(=O)(=O)c1ccccc1 [Example 1, 7-(Benzenesulphonamido)heptanoic Acid]",2300
11,"O=C(O)CCCCCCCCCCCNS(=O)(=O)c1ccc(Cl)cc1 [Example 11, 12-(4-Chlorobenzenesulphonamido)-dedecanoic Acid]",7000
12,"Cc1ccc(S(=O)(=O)NCCCCCCCC(=O)O)cc1 [Example 21, 8-(4-tolylsulphonamido)octanoic acid]",75
13,"COc1ccc(S(=O)(=O)NCCCCCCCC(=O)O)cc1 [Example 17, 8-(4-Methoxybenzenesulphonamido)octanoic Acid]",300
14,"CC(C)(CCCCCNS(=O)(=O)c1ccc(Cl)cc1)C(=O)O [Example 31, 7-(4-Chlorophenylsulphonamido)-2,2-dimethylheptanoic Acid]",330
15,"CC(C)(CCCCCCCNS(=O)(=O)c1ccc(Cl)cc1)C(=O)O [Example 30, 9-(4-Chlorophenylsulphonamido)-2,2-dimethylnonanoic Acid]",360
16,"O=C(O)CCCC#CCNS(=O)(=O)c1ccc(Cl)cc1 [Example 8, 7-(4-Chlorobenzenesulphonamido)hept-5-ynoic Acid]",5400
17,"O=C(O)CCC/C=C\CNS(=O)(=O)c1ccc(Cl)cc1 [Example 9, (Z)-7-(4-Chlorobenzenesulphonamido)hept-5-enoic Acid]",1600
18,"O=C(O)CCCCCCCNS(=O)(=O)c1ccccc1 [Example 2, 8-(Benzenesulphonamido)octanoic Acid]",290
19,"O=C(O)CCCCCCCNS(=O)(=O)c1cccc(Cl)c1 [Example 14, 8-(3-Chlorobenzenesulphonamido)octanoic Acid]",160
20,"O=C(O)CCCCCCCCNS(=O)(=O)c1ccc(Cl)cc1 [Example 6, 9-(4-Chlorobenzenesulphonamido)nonanoic Acid]",18
21,"O=C(O)CCCCCCCCCCNS(=O)(=O)c1ccc(Cl)cc1 [Example 19, 11-(4-Chlorobenzenesulphonamido)undecanoic Acid]",600
22,"CC(C)(CCCCCNS(=O)(=O)c1ccc(Cl)cc1)CC(=O)O [Example 12, 8-(4-Chlorobenzenesulphonamido)-3,3-dimethyloctanoic Acid]",600
23,"O=C(O)CCCCCNS(=O)(=O)c1ccccc1 [Example 4, 6-(Benzenesulphonamido)hexanoic Acid]",61000
24,"O=C(O)CCCCCCCCCNS(=O)(=O)c1ccc(Cl)cc1 [Example 24, 10-(4-Chlorobenzenesulphonamido)decanoic Acid]",60
25,"O=C(O)CCCCCCCNS(=O)(=O)c1ccc([N+](=O)[O-])cc1 [Example 15, 8-(4-Nitrobenzenesulphonamido)octanoic Acid]",110
26,"O=C(O)CCCCCCCNS(=O)(=O)c1ccc(Br)cc1 [Example 16, 8-(4-Bromobenzenesulphonamido)octanoic Acid]",20
27,"CC(C)(CCCCCCCCNS(=O)(=O)c1ccc(Cl)cc1)C(=O)O [Example 10, 2,2-Dimethyl-10-(4-chlorobenzenesulphonamido)decanoic Acid]",470
28,"O=C(O)CCCCCCNS(=O)(=O)c1ccc(Cl)cc1 [Example 13, 7-(4-Chlorobenzenesulphonamido)heptanoic Acid]",270
29,"O=C(O)CCCCCCCNS(=O)(=O)c1ccc(Cl)s1 [Example 29, 8-(5-Chloro-2-thienylsulphonamido)octanoic Acid]",40
